Structures are written as SMILES. Read-outs that look alike come from different tables or passages of the source.

In series [1] the test system is mitochondrial protein levels of Complexes II and IV. As to the kind of experiment: Mitochondrial Biogenesis Assay after 5-day treatment in PC-3 cells. It is filed as cell-based. The conditions noted are these: human. The method, then: (§1) Three-fold serial dilutions of compounds were prepared in duplicate in 96-well plates starting at a concentration close to the CC50 value of the compound after 5-day treatment. For compounds with CC50≧100 μM, the starting concentration was 100 μM. PC-3 cells were plated at a density of 2.5×10^3 cells per well in a final assay volume of 100 μL per well with a constant amount of DMSO equal to 0.5%. After 5-day incubation, the cells were analyzed with the MitoSciences MitoBiogenesis™ In-Cell ELISA Kit (catalog #MS642), which uses quantitative immunocytochemistry to measure protein levels of Complexes II and IV in cultured cells. Cells were fixed in a 96-well plate and target proteins were detected with highly-specific, well-characterized monoclonal antibodies. The protein levels were quantified with IRDyee-labeled Secondary Antibodies. IR imaging and quantitation was performed using a LI-COR® Odyssey instrument. All ratios were expressed as a percentage of the 0.5% DMSO control. In cases where cell viability was severely affected, the data for mitochondrial biogenesis was not included for analysis due to significant errors associated with low signals. Chloramphenicol was used as the positive control for the assay.

The test system of series [2] is RSV strain A2. Description: RSV-induced cytopathic effect in Hep2 cells, 384 well method. The conditions noted are these: human respiratory syncytial virus, HEp-2, 120 h. It is filed as cell-based. As for the experimental part: Antiviral activity against RSV is determined using an in vitro cytoprotection assay in Hep2 cells. […] The method used is similar to methods previously described in published literature (Chapman et al., Antimicrob Agents Chemother. 2007, 51(9):3346-53.)
Compounds were also tested for antiviral activity against RSV in Hep2 cells using a 384 well format. Compounds were diluted in DMSO using a 10-step serial dilution in 3-fold increments via automation in 4 adjacent replicates each. Eight compounds were tested per dilution plate. 0.4 uL of diluted compounds were then stamped via Biomek into 384-well plates (Nunc 142761 or 164730 w/lid 264616) containing 20 μL of media (Mediatech Inc. MEM supplemented with Glutamine, 10% FBS and Pen/Strep). DMSO and a suitable positive control compound, such as 80 μM GS-329467 or 10 μM 427346 was used for the 100% and 0% cell killing controls, respectively.
Hep2 cells (1.0×10^5 cells/mil) were prepared as above in batch to at least 40 mls excess of the number of sample plates (8 mls cell mix per plate) and infected with vendor supplied (ABI) RSV strain A2 to arrive at an MOI of 1:1000 (virus:cell #) or 1:3000 (vol virus: cell vol). Immediately after addition of virus, the RSV infected Hep2 cell suspension was added to each stamped 384-well plate at 20 μl per well using a uFlow dispenser, giving a final volume of 40 μL/well, each with 2000 infected cells. The plates were then incubated for 5 days at 37° C. and 5% CO2. Following incubation, the plates were equilibrated to room temperature in a biosafety cabinet hood for 1.5 hrs and 40 μL of Cell-Titer Glo viability reagent (Promega) was added to each well via uFlow. Following a10-20 minute incubation, the plates were read using an EnVision or Victor Luminescence plate reader (Perkin-Elmer). The data was then uploaded and analyzed on the Bioinformatics portal under the RSV Cell Infectivity and 8-plate EC50-Hep2-384 or 8-plate EC50-Hep2-Envision protocols.

Series [3] has as its target HCV Δ21 NS5b polymerase (Hepatitis C virus genotype 1b (isolate Con1) (HCV), UniProt Q9WMX2). Description: HCV IC50 determination, NS5b polymerase assay. It is filed as biochemical. The conditions noted are these: wild type or S282T mutant enzyme not specified, nucleoside triphosphates. As for the experimental part:
Assay Protocol: Either wild type or S282T (Migliaccio, et al., J. Biol. Chem. 2003, 49164-49170; Klumpp, et al., J. Biol. Chem. 2006, 3793-3799) mutant polymerase enzyme was used in this assay. NS5b polymerase assay (40 μL) was assembled by adding 28 μL polymerase mixture (final concentration: 50 mM Tris-HCl at pH 7.5, 10 mM KCl, 5 mM MgCl2, 1 mM DTT, 10 mM EDTA, 4 ng/μL of RNA template, and 75 nM HCV Δ21 NS5b polymerase) to assay plates followed by 4 μL of compound dilution. The polymerase and compound were pre-incubated at 35° C. for 10 minute before the addition of 8 μL of nucleotide substrate mixture (33P-[…] competing nucleotide at KM and 0.5 mM of the remaining three nucleotides). The assay plates were covered and incubated at 35° C. for 90 min. Reactions were then filtered through 96-well DEAE-81 filter plates via vacuum. The filter plates were then washed under vacuum with multiple volumes of 0.125 M NaHPO4, water, and ethanol to remove unincorporated label. Plates were then counted on TopCount to assess the level of product synthesis over background controls. The IC50 value is determined using Prism fitting program.

In series [4] the test system is HCV replicon cells. Description: HCV EC50 determination, replicon cells luciferase assay. The class given is cell-based. The conditions noted are these: Hepatitis C virus. The method, then:
Replicon cells were seeded in 96-well plates at a density of 8×10^3 cells per well in 100 μL of culture medium, excluding Geneticin. Compound was serially diluted in 100% DMSO and then added to the cells at a 1:200 dilution, achieving a final concentration of 0.5% DMSO and a total volume of 200 μL. Plates were incubated at 37° C. for 3 days, after which culture medium was removed and cells were lysed in lysis buffer provided by Promega's luciferase assay system. Following the manufacturer's instruction, 100 μL of luciferase substrate was added to the lysed cells and luciferase activity was measured in a TopCount luminometer.

Series [5] has as its system protein levels of Complexes II and IV in PC-3 cells. Description: Mitochondrial Biogenesis Assay after 5-day treatment in PC-3 cells. The class given is cell-based. The conditions noted are these: PC-3 cells, 5-day treatment; maximum concentration tested 100 μM. As for the experimental part:
as §1

The mark [6] stands for this setting: Hep2 cells, RSV A2, 5 days, Cell-Titer Glo, 384 well format, read-out: EC50.

`O=C(N[C@H](CO)[C@H](O)c1ccc([N+](=O)[O-])cc1)C(Cl)Cl` [Chloramphenicol, reference compound] showed a 50% cytotoxic concentration (CC50) at 5 days in series [1] of 2.5 µM. On to `N#C[C@@]1(n2ccc(=O)[nH]c2=O)O[C@H](CO)[C@@H](O)[C@H]1O` [Compound 3], for which the EC50 in series [2] (setting [6]) is 10.9 µM. On the same count and under the same terms, in the case of `N#C[C@@]1(n2ccc(N)nc2=O)O[C@H](CO)[C@@H](O)[C@H]1O` [Compound 4] it was 11.3 µM. On to `C[C@@H](O)[C@H]1O[C@@](C#N)(n2ccc(=O)[nH]c2=O)[C@@H](O)[C@@H]1O` [Compound 10], for which the EC50 in series [2] (setting [6]) came out at 200 µM. On to `C[C@@H](O)[C@H]1O[C@@](C#N)(n2ccc(N)nc2=O)[C@@H](O)[C@@H]1O` [Compound 11], for which, in series [2] (setting [6]), the concentration for a half-maximal effect (EC50) was found to be 200 µM.

For the compound `CO[C@@H]1[C@H](O)[C@@H](CO)O[C@@]1(C#N)n1ccc(=O)[nH]c1=O` [Compound 12], the 50% effective concentration (EC50) in series [2] (setting [6]) came out at 200 µM. The same measure, in the same setting: as for `CO[C@@H]1[C@H](O)[C@@H](CO)O[C@@]1(C#N)n1ccc(N)nc1=O` [Compound 13], the figure is 200 µM. For `C[C@H]1[C@H](O)[C@@H](CO)O[C@@]1(C#N)n1ccc(=O)[nH]c1=O` [Compound 15], the EC50 in series [2] (setting [6]) worked out at 200 µM. As to `C[C@@]1(O)[C@H](O)[C@@H](COP(=O)(O)OP(=O)(O)OP(=O)(O)O)O[C@@]1(C#N)n1ccc(=O)[nH]c1=O` [Compound 27], half-maximal inhibition in series [3] (IC50) required 27 µM. `C[C@@]1(O)[C@H](O)[C@@H](COP(=O)(O)OP(=O)(O)OP(=O)(O)O)O[C@@]1(C#N)n1ccc(N)nc1=O` [Compound 28] showed an IC50 in series [3] of 18 µM. `CC(C)OC(=O)[C@H](C)NP(=O)(OC[C@H]1O[C@@](C#N)(n2ccc(=O)[nH]c2=O)[C@](C)(O)[C@@H]1O)Oc1ccccc1` (stereo partly drawn) [Compound 29] registered an EC50 in series [4] (72 h) of 8.2 µM. Consider `CC(C)OC(=O)[C@H](C)N[P@](=O)(OC[C@H]1O[C@@](C#N)(n2ccc(N)nc2=O)[C@](C)(O)[C@@H]1O)Oc1ccccc1` [Compound 30], for which the EC50 in series [2] worked out at 200 µM; in series [4] (72 h), 2.6 µM; in series [4] (read-out: EC50 (antiviral activity)), 2.6 µM; in series [4] (read-out: HCV EC50), 2.6 µM. For the same compound, the “50% inhibition of mitochondrial protein levels” value in series [5] is over 100 µM. Besides, the cytotoxic concentration (CC50) at 5 days in series [1] (mitochondrial toxicity, PC-3 cells, 5-day treatment, maximum concentration tested 100 μM, read-out: CC50) is over 100 µM. With `CC(C)OC(=O)[C@H](C)N[P@](=O)(OC[C@H]1O[C@@](C#N)(n2ccc(N)nc2=O)[C@](C)(O)[C@@H]1OC(=O)C(C)C)Oc1ccccc1` [Compound 35], the EC50 in series [2] worked out at 200 µM.

Compound `C[C@@]1(O)[C@H](O)[C@@H](CO)O[C@H]1n1ccc(N)nc1=O` [Compound A, reference compound] yielded a CC50 at 5 days in series [1] of 43 µM. Also, the EC50 in series [4] (HCV replicon, read-out: EC50 (antiviral activity)) was 2.5 µM; in series [4] (replicon, comparison table R6=H vs R6=CN, read-out: HCV EC50), 2.5 µM.

These data come from US8877733B2, “1′-substituted pyrimidine N-nucleoside analogs for antiviral treatment” (Gilead Sciences, Inc., priority 2011, dated 2014).
